Source: the NIST ThermoML archive (doi:10.1021/acs.jced.9b00424)

Test: xn = mol fraction of the nth substance listed
Details: for surface tension liquid-gas: Pendant drop shape; for viscosity: 100 kPa, Concentric cylinders viscometry; for viscosity / mass density: Liquid; for mass density: 101 kPa, Vibrating tube method

CCCCCCCC(=O)O [octanoic acid] + CC(C)[C@@H]1CC[C@@H](C)C[C@H]1O
Details | mass density [kg/m3] | surface tension liquid-gas [mN/m] | viscosity [mPa·s]
297.82 K, x2 = 0 | – | 30.95 | –
298 K, x2 = 0.333 | – | 25.72 | –
298.11 K, x2 = 0.5 | – | 26.67 | –
298.15 K, x2 = 0 | 917.2 | – | 5.17
298.15 K, x2 = 0.25 | 914.7 | – | 7.61
298.15 K, x2 = 0.333 | 914.1 | – | 8.81
298.15 K, x2 = 0.5 | 912.3 | – | 12.18
298.15 K, x2 = 0.667 | 910.3 | – | 17.71
298.15 K, x2 = 0.75 | 909.3 | – | 20.82
298.16 K, x2 = 0.25 | – | 23.32 | –
298.2 K, x2 = 0.75 | – | 23.77 | –
298.24 K, x2 = 0.667 | – | 20.94 | –
302.68 K, x2 = 0 | – | 30.04 | –
303.04 K, x2 = 0.5 | – | 25.67 | –
303.15 K, x2 = 0 | 910.3 | – | 4.54
303.15 K, x2 = 0.25 | 908 | – | 6.46
303.15 K, x2 = 0.333 | 907.4 | – | 7.37
303.15 K, x2 = 0.5 | 905.7 | – | 9.83
303.15 K, x2 = 0.667 | 903.7 | – | 13.65
303.15 K, x2 = 0.75 | 902.7 | – | 15.46
303.69 K, x2 = 0.333 | – | 24.84 | –
303.77 K, x2 = 0.667 | – | 20.53 | –
303.85 K, x2 = 0.25 | – | 22.25 | –
303.88 K, x2 = 0.75 | – | 23 | –
307.73 K, x2 = 0.5 | – | 24.67 | –
308.15 K, x2 = 0 | 903.8 | – | 4.01
308.15 K, x2 = 0.25 | 901.7 | – | 5.54
308.15 K, x2 = 0.333 | 901.1 | – | 6.23
308.15 K, x2 = 0.5 | 899.5 | – | 8.06
308.15 K, x2 = 0.667 | 897.6 | – | 10.73
308.15 K, x2 = 0.75 | 896.6 | – | 11.94
308.49 K, x2 = 0 | – | 28.56 | –
308.53 K, x2 = 0.333 | – | 24.25 | –
308.73 K, x2 = 0.25 | – | 21.65 | –
308.75 K, x2 = 0.667 | – | 20.24 | –
308.78 K, x2 = 0.75 | – | 22.27 | –
312.93 K, x2 = 0 | – | 27.56 | –
313.15 K, x2 = 0 | 897.6 | – | 3.59
313.15 K, x2 = 0.25 | 895.6 | – | 4.81
313.15 K, x2 = 0.333 | 895.1 | – | 5.35
313.15 K, x2 = 0.5 | 893.5 | – | 6.72
313.15 K, x2 = 0.667 | 891.7 | – | 8.62
313.15 K, x2 = 0.75 | 890.6 | – | 9.42
313.17 K, x2 = 0.333 | – | 23.9 | –
313.35 K, x2 = 0.5 | – | 23.58 | –
314.11 K, x2 = 0.25 | – | 21.16 | –
314.26 K, x2 = 0.667 | – | 19.94 | –
314.39 K, x2 = 0.75 | – | 21.81 | –
317.8 K, x2 = 0 | – | 26.06 | –
318.12 K, x2 = 0.5 | – | 22.74 | –
318.15 K, x2 = 0 | 891.7 | – | 3.2
318.15 K, x2 = 0.25 | 889.9 | – | 4.18
318.15 K, x2 = 0.333 | 889.4 | – | 4.6
318.15 K, x2 = 0.5 | 887.9 | – | 5.63
318.15 K, x2 = 0.667 | 886.1 | – | 7
318.15 K, x2 = 0.75 | 885 | – | 7.53
318.42 K, x2 = 0.333 | – | 23.36 | –
318.81 K, x2 = 0.667 | – | 19.7 | –
318.88 K, x2 = 0.25 | – | 20.56 | –
318.9 K, x2 = 0.75 | – | 21.15 | –
322.15 K, x2 = 0 | – | 24.99 | –
322.96 K, x2 = 0.333 | – | 22.93 | –
322.97 K, x2 = 0.5 | – | 21.75 | –
323.15 K, x2 = 0 | 886.2 | – | 2.88
323.15 K, x2 = 0.25 | 884.6 | – | 3.68
323.15 K, x2 = 0.333 | 884 | – | 4
323.15 K, x2 = 0.5 | 882.6 | – | 4.79
323.15 K, x2 = 0.667 | 880.9 | – | 5.78
323.15 K, x2 = 0.75 | 879.5 | – | 6.12
323.52 K, x2 = 0.667 | – | 19.52 | –
323.58 K, x2 = 0.25 | – | 20.1 | –
323.61 K, x2 = 0.75 | – | 20.72 | –
327.39 K, x2 = 0 | – | 24.46 | –
328.11 K, x2 = 0.75 | – | 20.22 | –
328.15 K, x2 = 0 | 880.9 | – | 2.609
328.15 K, x2 = 0.25 | 879.5 | – | 3.25
328.15 K, x2 = 0.333 | 878.9 | – | 3.51
328.15 K, x2 = 0.5 | 877.6 | – | 4.11
328.15 K, x2 = 0.667 | 875.9 | – | 4.83
328.15 K, x2 = 0.75 | 874.4 | – | 5.05
328.35 K, x2 = 0.5 | – | 20.44 | –
328.41 K, x2 = 0.333 | – | 22.47 | –
328.48 K, x2 = 0.667 | – | 19.19 | –
328.93 K, x2 = 0.25 | – | 19.73 | –
331.72 K, x2 = 0 | – | 23.43 | –
332.7 K, x2 = 0.75 | – | 19.65 | –
332.78 K, x2 = 0.333 | – | 21.79 | –
332.97 K, x2 = 0.5 | – | 19.47 | –
333.15 K, x2 = 0 | 876 | – | 2.372
333.15 K, x2 = 0.25 | 874.7 | – | 2.9
333.15 K, x2 = 0.333 | 874.1 | – | 3.1
333.15 K, x2 = 0.5 | 872.9 | – | 3.56
333.15 K, x2 = 0.667 | 871.2 | – | 4.09
333.15 K, x2 = 0.75 | 869.4 | – | 4.22
333.27 K, x2 = 0.667 | – | 18.98 | –
333.38 K, x2 = 0.25 | – | 19.41 | –
338.15 K, x2 = 0 | 871.4 | – | 2.166
338.15 K, x2 = 0.25 | 870.1 | – | 2.595
338.15 K, x2 = 0.333 | 869.6 | – | 2.753
338.15 K, x2 = 0.5 | 868.4 | – | 3.11
338.15 K, x2 = 0.667 | 866.7 | – | 3.49
338.15 K, x2 = 0.75 | 864.6 | – | 3.56
343.15 K, x2 = 0 | 867.1 | – | 1.985
343.15 K, x2 = 0.25 | 865.9 | – | 2.336
343.15 K, x2 = 0.333 | 865.4 | – | 2.461
343.15 K, x2 = 0.5 | 864.3 | – | 2.732
343.15 K, x2 = 0.667 | 862.6 | – | 3.02
343.15 K, x2 = 0.75 | 860 | – | 3.04
348.15 K, x2 = 0 | 863 | – | 1.826
348.15 K, x2 = 0.25 | 862 | – | 2.113
348.15 K, x2 = 0.333 | 861.5 | – | 2.212
348.15 K, x2 = 0.5 | 860.4 | – | 2.419
348.15 K, x2 = 0.667 | 858.7 | – | 2.625
348.15 K, x2 = 0.75 | 855.7 | – | 2.635
353.15 K, x2 = 0 | 859.3 | – | 1.683
353.15 K, x2 = 0.25 | 858.3 | – | 1.921
353.15 K, x2 = 0.333 | 857.9 | – | 1.996
353.15 K, x2 = 0.5 | 856.7 | – | 2.156
353.15 K, x2 = 0.667 | 855.1 | – | 2.301
353.15 K, x2 = 0.75 | 851.6 | – | 2.324
